Assay results taken from patent EP4471048A1, “PEPTIDE INHIBITORS OF INTERLEUKIN-23 RECEPTOR” (Zealand Pharma A/S, priority 2023, dated 2024).
Read-outs that look alike come from different tables or passages of the source. *1 amine or outer side, *2 acyl side, *3 side chain or, on linkers, in order; H or OH if unused. Where a SMILES comes first, the peptide text is derived from it. Bridges are numbered along the chain shown (N, C = ends). [ ]: non-standard residue; d: D form. 2Nal = N[C@@H](Cc1ccc2ccccc2c1)C(=O)O; AEF = NCCOc1ccc(C[C@H](N)C(=O)O)cc1; X1 = O=C(Cc1ccc(CN[*:1])cc1)[*:2]; 3Pal = N[C@@H](Cc1cccnc1)C(=O)O; Aad = N[C@@H](CCCC(=O)O)C(=O)O; αMeL = CC(C)C[C@](C)(N)C(=O)O; CH2COCH2 = O=C(C[*:1])C[*:2]; dOrn = NCCC[C@@H](N)C(=O)O; Dab = NCC[C@H](N)C(=O)O

Experiments:
human IL-23R = molecular target: T1, human IL-23R (Homo sapiens, UniProt Q5VWK5); assay: biochemical; settings: for Emax: read-out: % displacement (hIL-23R NIuc)
T1 sequence (Q5VWK5 22-629): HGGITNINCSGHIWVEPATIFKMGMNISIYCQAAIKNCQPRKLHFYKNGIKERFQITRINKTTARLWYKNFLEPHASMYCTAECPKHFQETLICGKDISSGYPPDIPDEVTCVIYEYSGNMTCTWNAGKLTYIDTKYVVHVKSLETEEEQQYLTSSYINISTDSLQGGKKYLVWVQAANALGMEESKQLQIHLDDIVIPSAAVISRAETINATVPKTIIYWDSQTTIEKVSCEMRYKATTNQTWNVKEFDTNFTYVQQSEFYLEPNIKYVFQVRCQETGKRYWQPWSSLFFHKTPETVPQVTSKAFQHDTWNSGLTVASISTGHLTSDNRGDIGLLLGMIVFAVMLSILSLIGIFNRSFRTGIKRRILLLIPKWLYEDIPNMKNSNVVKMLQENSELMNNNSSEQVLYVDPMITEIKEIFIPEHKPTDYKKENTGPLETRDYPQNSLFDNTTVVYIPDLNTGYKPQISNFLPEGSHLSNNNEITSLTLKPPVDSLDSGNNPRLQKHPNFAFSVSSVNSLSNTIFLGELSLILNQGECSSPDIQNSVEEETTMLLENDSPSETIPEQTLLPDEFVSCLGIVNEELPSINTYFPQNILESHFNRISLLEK
How it was run: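 Membranes from HEK293 cells stably expressing Nluc-tagged human IL-23R were incubated 2 h at room temperature with test compound and a fluorophore-labelled tracer. After substrate addition, loss of BRET (TAMRA over luciferase emission) reported tracer displacement. A 4PL fit gave IC50 values.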

[1] = molecular target: IL-23 mediated signalling (Homo sapiens, UniProt Q5VWK5); assay: Functional inhibition of IL-23 mediated STAT3 signalling (phospho-STAT3 MSD) in DB cells; type: cell-based; settings: for Emax: read-out: hIL-23 (pSTAT3) antagonist % inhibition
Text: Upon binding of IL-23, the IL-23R forms a heterodimer signalling complex together with IL-12R β1, which through the JAK2/STAT3 pathway promotes phosphorylation of STAT3 to form phospho-STAT3.
For compounds tested in this assay, the response was normalized relative to control values to calculate the IC50 and maximal inhibitory response from a concentration response curve of the compound in presence of a fixed concentration of human IL-23.
The assay procedure was as follows. […] Following preincubation of the DB cells with inhibitor for 15 min in a cell incubator (37 °C, 5% CO2), 20 µL of the prepared 3X the EC80 of hIL-23 solution was added to each well and incubated for 90 min in a cell incubator (37 °C, 5% CO2). For some wells buffer only or IL-23 only corresponding to the EC80 was added to obtain readouts needed for normalization. To terminate the assay, the plate was spun at 1000 G for 5 min to pellet cells, the supernatant removed using an 8-channel manual pipette, and then added 50 µL/well Complete Lysis Buffer from the MSD STAT3 kit (Cat# K150SVD, Mesoscale) to the cell pellet. To completely lyse cells to release phospho-STAT3 for detection, the plate was shaken for 10 min at room temperature (500 rpm) sealed with aluminium foil and placed at -80 °C for a minimum of 15 min. Detection of the phospho-STAT3 level in the cell lysate from the individual wells was determined using the MSD STAT3 kit (Cat# K150SVD, Mesoscale) and read on a Meso QuickPlex SQ 120 plate reader (Mesoscale).
For data analysis raw data counts from the Meso QuickPlex SQ 120 plate reader were normalized relative to the response by the EC80 of h1L-23 alone (no compound added) and the buffer level. Compound potency (IC50) and maximal inhibitory response (% inhibition) were estimated by computer-aided curve fitting using a 4-parameter logistic (4PL) nonlinear model. […] Table 3-2: hIL-23 (pSTAT3) antagonist IC50 and % inhibition

[2] = Peptide stability in simulated intestinal fluid (SIF); type: in vitro ADME; settings: pig, 37 °C, porcine pancreatin; for remaining at 1 h, 10 µM: pH 6.8, 1 h; for remaining at 4 h, 10 µM: pH 6.8, 4 h, read-out: SIF (% remaining 4 h)
How it was run: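 Peptides were incubated at 37 °C with gentle shaking in pH 6.8 potassium phosphate SIF containing porcine pancreatin (10 g/L). Supernatants were analysed by LC-HRMS. Percent remaining at each timepoint, including 4 h, was calculated relative to time zero from absolute peak areas.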

[3] = Table 3-2, DB cells, hIL-23 at EC80, read-out: hIL-23 (pSTAT3) antagonist IC50
[4] = Table 3-2, maximal inhibitory response, DB cells, hIL-23 at EC80

Row | SMILES | % displacement (hIL-23R NIuc) (human IL-23R) [%] | IC50 (human IL-23R) [nM] | Ki (human IL-23R) [nM] | IC50 [1, 3] [nM] | Emax [1, 4] [%] | remaining at 1 h, 10 µM [2] [%] | remaining at 4 h, 10 µM [2] [%] | IC50 [1] [nM] | Emax ([1]; DB) [%] | Emax (human IL-23R) [%] | IC50 ([1]; SAR tables 2-1 to 2-7, DB cells, hIL-23 at EC80, read-out: IC50 (pSTAT3)) [nM]
1 | CC(C)C[C@]1(C)NC(=O)[C@H](Cc2ccc3ccccc3c2)NC(=O)[C@H](Cc2ccc(OCCN)cc2)NC(=O)[C@@H]2CSCC(=O)CSC[C@H](NC(=O)[C@H](CO)NC(=O)Cc3ccc(cc3)CNC(=O)CC[C@@H](C(=O)N[C@@H](CCN)C(N)=O)NC1=O)C(=O)N[C@@H](Cc1c[nH]c3ccccc13)C(=O)N[C@@H](CCC(N)=O)C(=O)N2 [Ref 82, [4-Aminomethyl-phenylacetyl](1c)*SC(2a)WQC(2a)[Y(2-aminoethoxy)][2-Nal][2-Me-Leu]E(1c)[Dab]-[NH2], reference compound] ([X1]SCWQC[AEF][2Nal][αMeL]E[Dab]-NH2; linker 3-6 via CH2COCH2; lactam N-10) | 103 | 0.082 | 0.0665 | 11 | 97 | 95 | 77 |  |  |  | 
2 | CC(C)C[C@]1(C)NC(=O)[C@H](Cc2ccc3ccccc3c2)NC(=O)[C@H](Cc2ccc(OCCN)cc2)NC(=O)[C@@H]2CSCC(=O)CSC[C@H](NC(=O)[C@H](CO)NC(=O)Cc3ccc(cc3)CNC(=O)CC[C@@H](C(=O)N[C@H](CCCNC(=N)N)C(N)=O)NC1=O)C(=O)N[C@@H](Cc1c[nH]c3ccccc13)C(=O)N[C@@H](CCC(N)=O)C(=O)N2 [Ref 80, [4-Aminomethyl-phenylacetyl](1c)*SC(2a)WQC(2a)[Y(2-aminoethoxy)][2-Nal][2-Me-Leu]E(1c)[{d}R]-[NH2], reference compound] ([X1]SCWQC[AEF][2Nal][αMeL]E[dR]-NH2; linker 3-6 via CH2COCH2; lactam N-10) | 98 | 0.18 | 0.15 | 11 | 97 | 84 | 86 |  |  |  | 
3 | CC(C)C[C@]1(C)NC(=O)[C@H](Cc2ccc3ccccc3c2)NC(=O)[C@H](Cc2ccc(OCCN)cc2)NC(=O)[C@@H]2CSCC(=O)CSC[C@H](NC(=O)[C@H](CO)NC(=O)Cc3ccc(cc3)CNC(=O)CC[C@@H](C(=O)N[C@@H](CO)C(N)=O)NC1=O)C(=O)N[C@@H](Cc1c[nH]c3ccccc13)C(=O)N[C@@H](CCC(N)=O)C(=O)N2 [Ref 81, [4-Aminomethyl-phenylacetyl](1c)*SC(2a)WQC(2a)[Y(2-aminoethoxy)][2-Nal][2-Me-Leu]E(1c)S-[NH2], reference compound] | 101 | 0.39 | 0.318 | 21 | 95 | 99 | 77 |  |  |  | 
4 | CC(=O)N[C@H]1CCCCNC(=O)CC[C@@H](C(=O)N[C@@H](CCN)C(=O)N[C@@H](Cc2cccnc2)C(N)=O)NC(=O)[C@](C)(CC(C)C)NC(=O)[C@H](Cc2ccc3ccccc3c2)NC(=O)[C@H](Cc2ccc(OCCN)cc2)NC(=O)[C@@H]2CSCC(=O)CSC[C@H](NC(=O)[C@H]([C@@H](C)O)NC1=O)C(=O)N[C@@H](Cc1c[nH]c3ccccc13)C(=O)N[C@@H](CCC(N)=O)C(=O)N2 [Ref 155, [Ac]-K(1c)TC(2a)WQC(2a)[Y(2-aminoethoxy)][2-Nal][2-Me-Leu]E(1c)[Dab][3-(3-Pyridyl)-Ala]-[NH2], reference compound] (Ac-KTCWQC[AEF][2Nal][αMeL]E[Dab][3Pal]-NH2; lactam 1-10; linker 3-6 via CH2COCH2) | 97 | 0.0099 | 0.00805 |  | 100 |  |  | 0.031 |  |  | 
5 | CC(C)C[C@]1(C)NC(=O)[C@H](Cc2c[nH]c3ccccc23)NC(=O)[C@H](Cc2c[nH]c3ccccc23)NC(=O)[C@@H]2CSCC(=O)CSC[C@H](NC(=O)[C@H]([C@@H](C)O)NC(=O)[C@@H](NC(=O)CN)CSCC(=O)CSC[C@@H](C(=O)N[C@@H](CO)C(N)=O)NC1=O)C(=O)N[C@@H](Cc1c[nH]c3ccccc13)C(=O)N[C@@H](CCC(=O)O)C(=O)N2 (single isomer, unassigned) [I5 (isomer 3), H-GC(1a)TC(2a)WEC(2a)WW[2-Me-Leu]C(1a)S-[NH2], reference compound] |  | 90 |  |  |  |  |  |  | 91 |  | 
6 | CC(C)C[C@]1(C)NC(=O)[C@H](Cc2ccc3ccccc3c2)NC(=O)[C@H](Cc2ccc(OCCN)cc2)NC(=O)[C@@H]2CCC(=O)N[C@@H](CCCCNC(=O)CC[C@@H](C(=O)N[C@@H](CCN)C(=O)N[C@@H](Cc3cccnc3)C(N)=O)NC1=O)C(=O)N[C@@H]([C@@H](C)O)C(=O)N[C@@H](C(C)C)C(=O)N[C@@H](Cc1c[nH]c3ccccc13)C(=O)N[C@@H](CCC(N)=O)C(=O)N2 [Compound 2, K(1c)(6c)^†TVWQE(6c)[Y(2-aminoethoxy)][2-Nal][2-Me-Leu]E(1c)[Dab][3-(3-Pyridyl)-Ala]-[NH2]] (KTVWQE[AEF][2Nal][αMeL]E[Dab][3Pal]-NH2; lactam 1-10, N-6) |  | 0.021 |  |  | 99 |  |  |  |  | 100 | 0.11
7 | CC(C)C[C@]1(C)NC(=O)[C@H](Cc2ccc3ccccc3c2)NC(=O)[C@H](Cc2ccc(OCCN)cc2)NC(=O)[C@@H]2CCC(=O)N[C@H](CCCNC(=O)CCC[C@@H](C(=O)N[C@@H](CCN)C(=O)N[C@@H](Cc3cccnc3)C(N)=O)NC1=O)C(=O)N[C@@H]([C@@H](C)O)C(=O)N[C@@H](C(C)C)C(=O)N[C@@H](Cc1c[nH]c3ccccc13)C(=O)N[C@@H](CCC(N)=O)C(=O)N2 [Compound 6, [{d}Orn](1c)(6c)^†TVWQE(6c)[Y(2-aminoethoxy)][2-Nal][2-Me-Leu][hGlu](1c)[Dab][3-(3-Pyridyl)-Ala]-[NH2]] ([dOrn]TVWQE[AEF][2Nal][αMeL][Aad][Dab][3Pal]-NH2; lactam 1-10, N-6) | 104 | 0.022 |  |  | 104 |  |  |  |  |  | 
8 | CNC(=O)[C@H](Cc1cccnc1)NC(=O)[C@H](CCN)NC(=O)[C@@H]1CCCCNC(=O)CC[C@@H]2NC(=O)CC[C@H](NC(=O)[C@H](CCC(N)=O)NC(=O)[C@H](Cc3c[nH]c4ccccc34)NC(=O)[C@H]([C@@H](C)O)NC2=O)C(=O)N[C@@H](Cc2ccc(OCCN)cc2)C(=O)N[C@@H](Cc2ccc3ccccc3c2)C(=O)N[C@@](C)(CC(C)C)C(=O)N1 [Compound 39, E(1c)(6c)^†TWQE(6c)[Y(2-aminoethoxy)][2-Nal][2-Me-Leu]K(1c)[Dab][3-(3-Pyridyl)-Ala]-[NHMe]] (ETWQE[AEF][2Nal][αMeL]K[Dab][3Pal]-NHMe; lactam 1-9, N-5) | 98 | 0.64 |  |  | 99 |  |  |  |  |  | 
9 | CC[C@H](C)[C@@H]1NC(=O)[C@@H]2CCCCNC(=O)CC[C@@H](C(=O)N[C@@H](CCN)C(=O)N[C@@H](Cc3cccnc3)C(N)=O)NC(=O)C(C)(C)NC(=O)[C@H](Cc3ccc4ccccc4c3)NC(=O)[C@H](Cc3ccc(C)cc3)NC(=O)[C@H](CCC(=O)N2)NC(=O)[C@H](CCC(N)=O)NC(=O)[C@H](Cc2c[nH]c3ccccc23)NC(=O)[C@H](C(C)C)NC1=O [Compound 17, K(1c)(6c)^†IVWQE(6c)[F(4-Me)][2-Nal][Aib]E(1c)[Dab][3-(3-Pyridyl)-Ala]-[NH2]] |  |  |  | 2.9 | 99 |  |  |  |  | 107 | 
